Measurements reported in patent US7138425B2, “Phthalimide carboxylic acid derivatives” (Oxford Glycoscience (UK) Ltd., priority 2002, dated 2006).
pIC50: −log10 of the molar value.

How the values were obtained:
[1] = test system: human endothelial cells; assay: Angiogenesis assay (AngioKit, tubule formation, PECAM-1 staining); type: cell-based; settings: Endothelial cell, 264 h, AngioKit co-culture, tubule formation on day 11, PECAM-1 staining relative to untreated control, read-out: Inhibition of angiogenesis (IC50)
From the text: A commercial angiogenesis assay for analysing the angiogenic or anti-angiogenic properties of test compounds (AngioKit catalogue no. ZHA-1000, TCS CellWorks Ltd, Buckingham, U.K) was used. In this assay, human endothelial cells were co-cultured with other human cells in a specifically designed medium. The endothelial cells initially form small islands within the culture matrix. They subsequently proliferate and then enter a migratory phase during which they move through the matrix to form threadlike tubule structures. These gradually join up (by 12–14 days) to form networks of […] tubules which closely resemble a capillary bed structure. These tubules stain positive for von Willebrand's Factor, Platelet Endothelial Cell Adhesion Molecule-1 (PECAM-1 or CD31) and Intercellular Adhesion Molecule-2 (ICAM-2).
The assay is supplied as growing cultures at the earliest stage of tubule formation in a 24 well plate format It is designed so that test compounds and conditioned media can be added to the cultures within individual wells. The resulting effect on tubule formation can then be monitored. Positive and negative test agents are provided in the kit, e.g. Vascular Endothelial Growth Factor (VEGF) and sumarin. All reagents were included as part of the kit and the assay was performed according to the protocol supplied by TCS CellWorks Ltd. Briefly, on day 1, fresh growth medium, medium plus control agent or medium plus test compound was added to the cells and the cultures were incubated at 37° C., 5% CO2. […] The specified medium was changed at days 4, 7 and 9 and the cells were monitored for growth. On day 11, the cells were washed with Dulbecco's Phosphate-Buffered Saline (PBS) and fixed using 70% ethanol (−20° C.) for 30 min at room temperature. After fixing, the cells were washed and treated with blocking buffer, 1% BSA in PBS. The cells were stained for PECAM-1 on the same day, following standard immunohistochemistry procedures well known to those skilled in the art, using mouse anti-human CD31 as the primary antibody and a goat anti-mouse IgG alkaline phosphate conjugate. Tubule formation was quantitatively assessed by measuring PECAM-1 positive staining using the image analysis program “Matrox inspector” to evaluate the percentage tubule staining relative to an untreated control.

[2] = target: T1, human heparanase (Homo sapiens, UniProt Q9Y251); assay: Heparanase assay (bFGF binding to heparan sulfate, plate ELISA); type: biochemical; settings: human heparanase expressed in insect cells, pH 5.5, 2 h at 37° C.; read-out: Inhibition of Heparanase (IC50)
T1 construct: made in house; host or cells: insect cells
T1 sequence (Q9Y251 158-543 limits assumed): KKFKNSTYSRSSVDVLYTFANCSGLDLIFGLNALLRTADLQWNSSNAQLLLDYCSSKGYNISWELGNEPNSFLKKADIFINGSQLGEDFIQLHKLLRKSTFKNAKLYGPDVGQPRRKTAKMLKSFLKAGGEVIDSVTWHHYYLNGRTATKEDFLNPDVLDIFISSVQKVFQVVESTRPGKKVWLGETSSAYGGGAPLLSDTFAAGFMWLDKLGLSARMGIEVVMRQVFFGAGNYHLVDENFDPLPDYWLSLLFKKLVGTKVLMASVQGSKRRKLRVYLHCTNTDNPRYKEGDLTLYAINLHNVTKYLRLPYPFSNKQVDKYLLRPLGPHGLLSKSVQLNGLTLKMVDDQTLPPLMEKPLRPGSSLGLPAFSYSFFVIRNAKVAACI
T1 sequence (Q9Y251 36-109 limits assumed): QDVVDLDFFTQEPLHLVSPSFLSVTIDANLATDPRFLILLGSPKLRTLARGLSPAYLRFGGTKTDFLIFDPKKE
Procedure: The assay is based upon the specific binding of basic fibroblast growth factor (bFGF) to heparan sulfate. […] Heparan sulfate will ordinarly adhere to plastic well plate surfaces. Following cleavage of high molecular weight heparan sulfate by heparanase, the smaller material generated will no longer adhere to the surface of a well plate. Thus, upon addition to the plate of bFGF, heparanase activity can be followed as a reduction in bFGF binding.
Nunc Maxisorp 96-well plates are coated for 16 h at room temperature with 100 μl/well 0.04 mg/ml heparan sulfate in PBS. The wells are then aspirated and blocked for 1 h with 200 μl/well 1% BSA-PBS. Following five washes with 0.01% BSA, 0.05% Tween20 PBS (wash buffer), 100 μl of recombinant human basic FGF (90 ng/ml in 0.1% BSA/PBS) is added per well and the plate is incubated at room temperature for 1 h.
The human heparanase used is expressed in insect cells. The wells are washed again with wash buffer and 100 μl of bFGF antibody-horse radish peroxidase conjugate is added. The plate is then incubated at room temperature for 1 h and subsequently washed five times with wash buffer. 100 μl of TMB peroxidase substrate is added and the colour allowed to develop for 10 min. The reaction is stopped with 50 μl 1M H2SO4 and the colour intensity is read at 450 nm on a plate reader.

| SMILES | pIC50 [1] | pIC50 [2] |
| --- | --- | --- |
| O=C(O)c1ccc2c(c1)C(=O)N(c1cccc(-c3nc4ccccc4o3)c1)C2=O [Example 1, 2-[3-(Benzoxazol-2-yl)phenyl]-2,3-dihydro-1,3-dioxo-1H-isoindole-5-carboxylic acid] | 4.40 |  |
| O=C(O)c1ccc2c(c1)C(=O)N(c1cccc(-c3nc4cc5ccccc5cc4o3)c1)C2=O [Example 2, 2-[3-(Naphth[2,3-d]oxazol-2-yl)phenyl]-2,3-dihydro-1,3-dioxo-1H-isoindole-5-carboxylic acid] | 5.30 | 6.15 |
| COc1ccc(-c2nc3cc(-c4ccccc4)ccc3o2)cc1N1C(=O)c2ccc(C(=O)O)cc2C1=O [Example 9, 2-[2-Methoxy-5-(5-phenylbenzoxazol-2-yl)phenyl]-1,3-dioxo-2,3-dihydro-1H-isoindole-5-carboxylic acid] | 6.00 |  |
| COc1ccc(-c2nc3cc(-c4cc5ccccc5o4)ccc3o2)cc1N1C(=O)c2ccc(C(=O)O)cc2C1=O [Example 15, 2-[2-Methoxy-5-[5-(benzofuran-2-yl)benzoxazol-2-yl]phenyl]-1,3-dioxo-2,3-dihydro-1H-isoindole-5-carboxylic acid] | 6.00 | 6.30 |
| COc1ccc(-c2ccc3oc(-c4ccc(OC)c(N5C(=O)c6ccc(C(=O)O)cc6C5=O)c4)nc3c2)cc1 [Example 27, 2-[2-Methoxy-5-[5-(4-methoxy)phenylbenzoxazol-2-yl]phenyl]-1,3-dioxo-2,3-dihydro-1H-isoindole-5-carboxylic acid] | 4.82 |  |
| CCCNc1ccc(N2C(=O)c3ccc(C(=O)O)cc3C2=O)cc1-c1nc2ccc(C)cc2o1 [Example 65, 2-[3-(6-Methylbenzoxazol-2-yl)-4-propylaminophenyl]-1,3-dioxo-2,3-dihydro-1H-isoindole-5-carboxylic acid] | 5.30 | 6.10 |
| CCCNc1ccc(N2C(=O)c3ccc(C(=O)O)cc3C2=O)cc1-c1nc2ccc(F)cc2o1 [Example 66, 2-[3-(6-Fluorobenzoxazol-2-yl)-4-propylaminophenyl]-1,3-dioxo-2,3-dihydro-1H-isoindole-5-carboxylic acid] | 5.70 | 6.10 |
| CCCNc1ccc(N2C(=O)c3ccc(C(=O)O)cc3C2=O)cc1-c1nc2cc(Br)cc(F)c2o1 [Example 71, 2-[3-(5-Bromo-7-fluorobenzoxazol-2-yl)-4-propylaminophenyl]-1,3-dioxo-2,3-dihydro-1H-isoindole-5-carboxylic acid] | 6.30 | 6.30 |
| COc1ccc(-c2nc3cc(-c4cc5ccccc5s4)ccc3o2)cc1N1C(=O)c2ccc(C(=O)O)cc2C1=O [Example 92, 2-[2-Methoxy-5-[5-(2-benzothiophenyl)benzoxazol-2-yl]phenyl]-1,3-dioxo-2,3-dihydro-1H-isoindole-5-carboxylic acid] | 6.70 | 6.40 |
| COc1ccc(-c2nc3cc(-c4ccc(N(C)C)cc4)ccc3o2)cc1N1C(=O)c2ccc(C(=O)O)cc2C1=O [Example 97, 2-[2-Methoxy-5-[5-(4-N,N-dimethylaminophenyl)benzoxazol-2-yl]phenyl]-1,3-dioxo-2,3-dihydro-1H-isoindole-5-carboxylic acid] | 5.70 | 6.10 |
| COc1ccc(N2C(=O)c3ccc(C(=O)O)cc3C2=O)cc1-c1nc2cc(-c3cc(F)cc(F)c3)ccc2o1 [Example 104, 2-[4-Methoxy-5-[5-(3,5-difluorophenyl)benzoxazol-2-yl]phenyl]-1,3-dioxo-2,3-dihydro-1H-isoindole-5-carboxylic acid] | 6.12 |  |
| COc1ccc(N2C(=O)c3ccc(C(=O)O)cc3C2=O)cc1-c1nc2cc(-c3ccc4c(c3)OCO4)ccc2o1 [Example 105, 2-[4-Methoxy-5-[5-(3,4-methylenedioxyphenyl)benzoxazol-2-yl]phenyl]-1,3-dioxo-2,3-dihydro-1H-isoindole-5-carboxylic acid] | 5.52 |  |
| CCCNc1ccc(N2C(=O)c3ccc(C(=O)O)cc3C2=O)cc1-c1nc2cc(-c3cc4ccccc4o3)ccc2o1 [Example 108, 2-[4-Propylamino-3-[5-(2-benzofuranyl)benzoxazol-2-yl]phenyl]-1,3-dioxo-2,3-dihydro-1H-isoindole-5-carboxylic acid] | 5.70 | 6.30 |
| CCCNc1ccc(N2C(=O)c3ccc(C(=O)O)cc3C2=O)cc1-c1nc2cc(-c3cc4ccccc4s3)ccc2o1 [Example 110, 2-[4-Propylamino-5-[5-(2-benzothiophenyl)benzoxazol-2-yl]phenyl]-1,3-dioxo-2,3-dihydro-1H-isoindole-5-carboxylic acid] | 5.30 | 6.22 |
| CCCNc1ccc(N2C(=O)c3ccc(C(=O)O)cc3C2=O)cc1-c1nc2cc(-c3ccc(Cl)cc3)ccc2o1 [Example 112, 2-[4-Propylamino-5-[5-(4-chlorophenyl)benzoxazol-2-yl]phenyl]-1,3-dioxo-2,3-dihydro-1H-isoindole-5-carboxylic acid] | 5.70 |  |
| CCCNc1ccc(N2C(=O)c3ccc(C(=O)O)cc3C2=O)cc1-c1nc2cc(-c3ccc(F)cc3)ccc2o1 [Example 115, 2-[4-Propylamino-5-[5-(4-fluorophenyl)benzoxazol-2-yl]phenyl]-1,3-dioxo-2,3-dihydro-1H-isoindole-5-carboxylic acid] | 6.60 |  |
| CCCNc1ccc(N2C(=O)c3ccc(C(=O)O)cc3C2=O)cc1-c1nc2cc(-c3ccc(OC(F)(F)F)cc3)ccc2o1 [Example 116, 2-[4-Propylamino-5-[5-(4-trifluoromethoxy)phenylbenzoxazol-2-yl]phenyl]-1,3-dioxo-2,3-dihydro-1H-isoindole-5-carboxylic acid] | 7.00 |  |
